# Results published in patent US8318769B2, “Substituted sulfonamide compounds” (Gruenethal GmbH, priority 2008, dated 2012).
# Columns and labels:
# [1] = biological target: T1, bradykinin 1 receptor (B1R) of the rat (Rattus norvegicus, UniProt P97583); test: FLIPR Ca2+ assay, B1R antagonism, rat; type: cell-based; conditions: CHO K1 cells with rat B1R gene (rB1R cells), Des-Arg9-bradykinin at EC80, % inhibition compared with the maximum achievable inhibition; for inhibition at 10 µM: CHO-K1, 10 μM test substance, read-out: B1R antagonism, rat [10 μM] % inhibition
# T1 construct: expressed in transfected cells
# T1 sequence (P97583 1-337): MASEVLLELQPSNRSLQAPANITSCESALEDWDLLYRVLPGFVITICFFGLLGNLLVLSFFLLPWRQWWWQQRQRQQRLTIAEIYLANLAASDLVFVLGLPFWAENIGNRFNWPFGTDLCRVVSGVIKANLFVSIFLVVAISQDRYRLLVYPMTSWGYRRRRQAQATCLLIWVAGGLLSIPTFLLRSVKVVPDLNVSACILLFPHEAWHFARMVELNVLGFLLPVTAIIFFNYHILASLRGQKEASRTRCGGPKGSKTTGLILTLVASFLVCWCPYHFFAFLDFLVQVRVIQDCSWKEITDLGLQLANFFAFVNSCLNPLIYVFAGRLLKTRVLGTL
# How it was run: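 Antagonism is given as % of maximum achievable suppression of agonist-evoked Ca2+ influx, measured by Fluo-4 peak fluorescence in FLIPR. Stable hB1R or rB1R CHO K1 lines received 10 μM compound for 10-20 min before EC80 Lys-Des-Arg9-bradykinin (human) or Des-Arg9-bradykinin (rat).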
# [2] = biological target: T2, human bradykinin 1 receptor (B1R) (Homo sapiens, UniProt P46663); test: FLIPR Ca2+ assay, B1R antagonism, human; type: cell-based; conditions: 10 μM test substance, CHO K1 cells with human B1R gene (hB1R cells), Lys-Des-Arg9-bradykinin at EC80, % inhibition compared with the maximum achievable inhibition; for inhibition at 10 µM: read-out: B1R antagonism, human [10 μM] % inhibition
# T2 construct: expressed in transfected cells
# T2 sequence (P46663 1-353): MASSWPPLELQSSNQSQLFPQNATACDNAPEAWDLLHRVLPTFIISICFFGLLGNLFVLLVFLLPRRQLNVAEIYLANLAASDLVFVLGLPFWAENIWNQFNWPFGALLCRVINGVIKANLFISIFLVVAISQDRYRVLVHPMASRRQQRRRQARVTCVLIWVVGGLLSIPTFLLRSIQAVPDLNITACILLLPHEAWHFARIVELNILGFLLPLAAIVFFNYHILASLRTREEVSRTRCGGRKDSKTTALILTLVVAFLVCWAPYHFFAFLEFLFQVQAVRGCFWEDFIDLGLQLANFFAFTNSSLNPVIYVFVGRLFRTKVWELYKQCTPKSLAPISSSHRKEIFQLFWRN
# Description: The agonistic or antagonistic action of substances can be quantified on the bradykinin 1 receptor (B1R) of the human and rat species with ectopically expressing cell lines (CHO K1 cells) and with the aid of a Ca^2+-sensitive dyestuff (Fluo-4) in a fluorescent imaging plate reader (FLIPR). The figure in % activation is based on the Ca^2+ signal after addition of Lys-Des-Arg^9-bradykinin (0.5 nM) or Des-Arg^9-bradykinin (100 nM). Antagonists lead to a suppression of the Ca^2+ inflow after addition of the agonist. % inhibition compared with the maximum achievable inhibition is stated.
# The agonistic or antagonistic action of substances can be determined on the bradykinin 1 receptor (B1R) of the human and rat species with the following assay. In accordance with this assay, the Ca^2+ inflow through the channel is quantified with the aid of a Ca^2+-sensitive dyestuff (type Fluo-4, Molecular Probes Europe BV, Leiden, Holland) in a fluorescent imaging plate reader (FLIPR, Molecular Devices, Sunnyvale, USA).
# Chinese hamster ovary cells (CHO K1 cells) transfected stably with the human B1R gene (hB1R cells) or the B1R gene of the rat (rB1R cells) are used. For functional studies, these cells are plated out on black 96-well plates with a clear base (BD Biosciences, Heidelberg, Germany or Greiner, Frickenhausen, Germany) in a density of 20,000-35,000 cells/well. The cells are left overnight at 37° C. and 5% CO2 in culture medium (hB1R cells: Nutrient Mixture Ham's F12, Gibco Invitrogen GmbH, Karlsruhe, Germany or DMEM, Sigma-Aldrich, Taufkirchen, Germany; rB1R cells: D-MEM/F12, Gibco Invitrogen GmbH, Karlsruhe, Germany) with 10 vol. % FBS (foetal bovine serum, Gibco Invitrogen GmbH, Karlsruhe, Germany or PAN Biotech GmbH, Aidenbach, Germany).
# On the following day, the cells are loaded for 60 min at 37° C. with 2.13 μM Fluo-4 (Molecular Probes Europe BV, Leiden, Holland) in HBSS buffer (Hank's buffered saline solution, Gibco Invitrogen GmbH, Karlsruhe, Germany) with 2.5 mM probenecid (Sigma-Aldrich, Taufkirchen, Germany) and 10 mM HEPES (Sigma-Aldrich, Taufkirchen, Germany). The plates are then washed 2× with HBSS buffer, and HBSS buffer which additionally contains 0.1% BSA (bovine serum albumin; Sigma-Aldrich, Taufkirchen, Germany), 5.6 mM glucose and 0.05% gelatine (Merck KGaA, Darmstadt, Germany) is added. After a further incubation of 20 minutes at room temperature, the plates are inserted into the FLIPR for the Ca^2+ measurement.
# Alternatively, the plates are washed with buffer A (15 mM HEPES, 80 mM NaCl, 5 mM KCl, 1.2 mM CaCl2, 0.7 mM MgSO4, 2 g/l glucose, 2.5 mM probenecid), buffer A is added and the plates are loaded with 2.5 μM Fluo-4 and 0.025% Pluronic F127 (Sigma-Aldrich, Taufkirchen, Germany). Thereafter, the cells are washed 2× with buffer A and incubated for 30 minutes with buffer A, which additionally contains 0.05% BSA and 0.05% gelatine, at room temperature and thereafter inserted into the FLIPR for the Ca^2+ measurement.
# The Ca^2+-dependent fluorescence is measured here before and after addition of substances (λex=488 nm, λem=540 nm). Quantification is by measurement of the highest fluorescence intensity (FC, fluorescence counts) over time.
# The FLIPR protocol consists of 2 additions of substance. Test substances (10 μM) are first pipetted on to the cells and the Ca^2+ inflow is compared with the control (hB1R: Lys-Des-Arg^9-bradykinin >=50 nM; rB1R: Des-Arg^9-bradykinin 10 μM). This gives the figure in % activation based on the Ca^2+ signal after addition of Lys-Des-Arg^9-bradykinin (>=50 nM) or Des-Arg^9-bradykinin (10 μM).
# After incubation for 10-20 minutes, Lys-Des-Arg^9-bradykinin (hB1R) or Des-Arg^9-bradykinin (rB1R) in the concentration of the EC80 is applied and the inflow of Ca^2+ is likewise determined. Antagonists lead to a suppression of the Ca^2+ inflow. % inhibition compared with the maximum achievable inhibition is calculated. […]
SMILES,inhibition at 10 µM [1] [%],inhibition at 10 µM [2] [%],"B1R antagonism, rat [10 μM] % inhibition ([1]; 10 μM test substance, 10 µM) [%]","B1R antagonism, human [10 μM] % inhibition [2] [%]"
"Cc1cccc(Cl)c1S(=O)(=O)N1CCCC[C@H]1COCC(=O)N1CCC(OCCN2CCCC2)(c2cccnc2)CC1 [Example 48, (S)-2-((1-(2-chloro-6-methylphenylsulfonyl)piperidin-2-yl)methoxy)-1-(4-(pyridin-3-yl)-4-(2-(pyrrolidin-1-yl)ethoxy)piperidin-1-yl)ethanone]",105,99,,
"O=C(CC1CCCCN1S(=O)(=O)c1cccc(C(F)(F)F)c1)N1CCC(OCCCN2CCCC2)(c2cccnc2)CC1 (centres unmarked) [Example 42, 1-(4-(pyridin-3-yl)-4-(3-(pyrrolidin-1-yl)propoxy)piperidin-1-yl)-2-(1-(3-(trifluoromethyl)phenylsulfonyl)piperidin-2-yl)ethanone]",48,52,,
"COc1cc(C)c(S(=O)(=O)N2CCCC[C@H]2COCC(=O)N2CCC(OCCn3ccnc3)(c3cccnc3)CC2)c(C)c1 [Example 60, 1-[4-[2-(1H-imidazol-1-yl)-ethoxy]-4-pyridin-3-yl-piperidin-1-yl]-2-[[(2S)-1-[(4-methoxy-2,6-dimethyl-phenyl)sulfonyl]-piperidin-2-yl]-methoxy]-ethanone]",102,100,,
"COc1cc(C)c(S(=O)(=O)N2CCCCC2CCCC(=O)N2CCC(OCCN3CCCC3)(c3ccncc3)CC2)c(C)c1 (centres unmarked) [Example 91, 4-[1-[(4-methoxy-2,6-dimethyl-phenyl)sulfonyl]-piperidin-2-yl]-1-[4-pyridin-4-yl-4-(2-pyrrolidin-1-yl-ethoxy)-piperidin-1-yl]-butan-1-one]",,,103,100
"COc1cc(C)c(S(=O)(=O)N2CCCCC2COCC(=O)N2CCC(OCCN3CCCCC3)(c3cccnc3)CC2)c(C)c1 (centres unmarked) [Example 14, 2-((1-(4-methoxy-2,6-dimethylphenylsulfonyl)piperidin-2-yl)methoxy)-1-(4-(2-(piperidin-1-yl)ethoxy)-4-(pyridin-3-yl)piperidin-1-yl)ethanone]",102,103,,
"O=C(COCCN(C1CCc2ccccc21)S(=O)(=O)c1ccc(Cl)cc1Cl)N1CCC(OCCN2CCCC2)(c2cccnc2)CC1 (centres unmarked) [Example 7, 2,4-dichloro-N-(2,3-dihydro-1H-inden-1-yl)-N-(2-(2-oxo-2-(4-(pyridin-3-yl)-4-(2-(pyrrolidin-1-yl)ethoxy)piperidin-1-yl)ethoxy)ethyl)benzenesulfonamide]",94,99,,
"Cc1cccc(Cl)c1S(=O)(=O)N1CCCCC1CCCC(=O)N1CCC(OCCN2CCCC2)(c2cccc(F)c2)CC1 (centres unmarked) [Example 85, 4-[1-[(2-chloro-6-methyl-phenyl)sulfonyl]-piperidin-2-yl]-1-[4-(3-fluorophenyl)-4-(2-pyrrolidin-1-yl-ethoxy)-piperidin-1-yl]-butan-1-one]",98,100,,
"Cc1cccc(Cl)c1S(=O)(=O)N1CCCCC1CCCC(=O)N1CCC(OCCN2CCCC2)(c2cccnc2)CC1 (centres unmarked) [Example 9, 4-(1-(2-chloro-6-methylphenylsulfonyl)piperidin-2-yl)-1-(4-(pyridin-3-yl)-4-(2-(pyrrolidin-1-yl)ethoxy)piperidin-1-yl)butan-1-one]",102,100,,
"COc1cc(C)c(S(=O)(=O)N(C)CCOCC(=O)N2CCC(OCCN3CCCC3)(c3cccc(F)c3)CC2)c(C)c1C [Example 114, N-[2-[2-[4-(3-fluorophenyl)-4-(2-pyrrolidin-1-yl-ethoxy)-piperidin-1-yl]-2-oxo-ethoxy]-ethyl]-4-methoxy-N,2,3,6-tetramethyl-benzenesulfonic acid amide]",99,100,,
"O=C(CCCC1CCCCN1S(=O)(=O)c1ccc2ccccc2c1)N1CCC(OCCN2CCCC2)(c2cccnc2)CC1 (centres unmarked) [Example 95, 4-[1-(naphthalen-2-ylsulfonyl)-piperidin-2-yl]-1-[4-pyridin-3-yl-4-(2-pyrrolidin-1-yl-ethoxy)-piperidin-1-yl]-butan-1-one]",101,95,,
"COc1cc(C)c(S(=O)(=O)N2CCCC[C@H]2COCC(=O)N2CCC(OCCn3cncn3)(c3cccnc3)CC2)c(C)c1 [Example 59, 2-[[(2S)-1-[(4-methoxy-2,6-dimethyl-phenyl)sulfonyl]-piperidin-2-yl]-methoxy]-1-[4-pyridin-3-yl-4-[2-(1H-[1,2,4]triazol-1-yl)-ethoxy]-piperidin-1-yl]-ethanone]",102,100,,
"COc1cc(C)c(S(=O)(=O)N2c3ccccc3CCC2COCC(=O)N2CCC(OCCN3CCCC3)(c3ccncc3)CC2)c(C)c1 (centres unmarked) [Example 103, 2-[[1-[(4-methoxy-2,6-dimethyl-phenyl)sulfonyl]-1,2,3,4-tetrahydro-quinolin-2-yl]-methoxy]-1-[4-pyridin-4-yl-4-(2-pyrrolidin-1-yl-ethoxy)-piperidin-1-yl]-ethanone]",103,100,,
"COc1cc(C)c(S(=O)(=O)N(CCOCC(=O)N2CCC(OCC[N+]3(C)CCCC3)(c3cccnc3)CC2)C2CC2)c(C)c1 [Example 58, N-cyclopropyl-4-methoxy-2,6-dimethyl-N-[2-[2-[4-[2-(1-methyl-pyrrolidin-1-ium-1-yl)-ethoxy]-4-pyridin-3-yl-piperidin-1-yl]-2-oxo-ethoxy]-ethyl]-benzenesulfonic acid amide iodide]",104,100,,
